Laboratory results from patent US7109380B2, “Cyclopentenedione antifungal compounds and methods for their use” (The University of Mississippi, priority 2004, dated 2006).
pIC50: −log10 of the molar value. Values after ≈ are worked out from the molar mass of the structure shown.

Columns and labels:
Type in all cases: cell-based
[1] = tested on: M. intracellulare ATCC 23068; assay: In vitro antibacterial assay (modified method of Franzblau, Alamar Blue); settings: Mycobacterium intracellulare, ATCC23068, M. intracellulare ATCC 23068
[2] = tested on: Colletotrichum gloeosporioides; assay: 96-well microtiter fungal growth assay;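 also: percent relative to untreated positive growth controls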
Excerpt: (§1) Pathogen collection. Isolates of Colletotrichum acutatum Simmonds, Colletotrichum fragariae Brooks, and Colletotrichum gloeosporioides (Penz.) Penz. & Sacc. in Penz. were obtained from B. J. Smith, USDA, ARS, Small Fruit Research Station, Poplarville, Mass. Colletotrichum fragariae (isolate CF63), C. acutatum (isolate CAGoff), and C. gloeosporioides (isolate CG162) were used for all pathogen and bioautography studies. Isolate CF63 is one of the most virulent isolates at infecting strawberry plants and inducing both crown and fruit rot (Smith and Black, 1990). CF63, CAGoff, and CG162 were used as standard test isolates because of our extensive knowledge of these isolates and their known fungicide sensitivity profiles in both bioautography and microtiter formats. The three Colletotrichum species were isolated from strawberry (Fragaria xananassa Duchesne). Botrytis cinerea Pers.:Fr, was isolated from commercial grape (Vitis vinifera L.) and Fusarium oxysporum Schlechtend:Fr from orchid (Cynoches sp.) by David E. Wedge, USDA ARS Natural Products Utilization Research Unit. Phomopsis viticola (Sacc.) and P. obscurans (Ellis & Everh.) Sutton were from Mike A. Ellis, Ohio State University, Wooster, Ohio. Fungi were grown on potato-dextrose agar (PDA, Difco, Detroit Mich.) in 9 cm petri dishes and incubated in a growth chamber at 24±2° C. and under cool-white fluorescent lights ([…]·m^−2·sec^−1 light) with 12-h photoperiod.
(§2) Inoculum preparation. Conidia were harvested from 7–10 day-old cultures by flooding plates with 5 mL of sterile distilled water and dislodging conidia by softly brushing the colonies with an L-shaped glass rod. Conidial suspensions were filtered through sterile miracloth (Calbiochem-Novabiochem Corp., La Jolla Calif.) to remove mycelia. Conidia concentrations were determined photometrically, from a standard curve based on the absorbance at 625 nm and suspensions were then adjusted with sterile distilled water to a concentration of 1.0×10^6 conidia/mL.
(§3) Microtiter assay. A standardized 96-well microtiter plate assay developed for discovery of natural product fungicidal agents. A 96-well microtiter assay was used to determine sensitivity of B. cinerea, C. acutatum, C. fragariae, C. gloeosporioides, F. oxysporum, Phomopsis viticola, and P. obscurans to the various antifungal agents in comparison with known fungicidal standards. Vinclozolin, captan, and thiabendazole, which represent three different modes of action, were used as standards in this experiment. Each fungus was challenged in a dose-response format using test compounds where the final treatment concentrations were 0.3, 3.0 and 30.0 μM. Microtiter plates (Nunc MicroWell, untreated; Roskilde, Denmark) were covered with a plastic lid and incubated in a growth chamber at 24±1 C and 12 h photoperiod under 60±5 μmol light. Growth was then evaluated by measuring absorbance of each well at 620 nm using a microplate photometer (Packard Spectra Count, Packard Instrument Co., Downers Grove, Ill.).
(§4) Microbioassay Experimental Design. Chemical sensitivity of each fungus 96-well microtiter assay is used to determine sensitivity of B. cinerea, C. acutatum, C. fragariae, C. gloeosporioides, F. oxysporum, Phomopsis viticola, and P. obscurans. Each chemical is evaluated in duplicate at each dose (0.3, 3.0 and 30.0 μM) and repeated twice in time. Sixteen wells containing broth and inoculum serves as positive controls, eight wells containing solvent at the appropriate concentration and broth without inoculum are used as negative controls. Mean absorbance values and standard errors is used to evaluate fungal growth at 48 hrs and 72 hrs except for P. obscurans and P. viticola the data are recorded at 120 hrs. […] Treatments are arranged as a split-plot design replicated twice in time. Whole-plots were fungal isolates and sub-plots are chemicals. Each dose level and response time is analyzed separately. […]

Colletotrichum fragariae = assay: 96-well microtiter fungal growth assay;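 also: percent relative to untreated positive growth controls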
Excerpt: as §1, §2, §3, §4

Fusarium oxysporum = assay: 96-well microtiter fungal growth assay;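 also: percent relative to untreated positive growth controls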
Excerpt: as §1, §2, §3, §4

Botrytis cinerea = assay: 96-well microtiter fungal growth assay;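 also: percent relative to untreated positive growth controls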
Excerpt: as §1, §2, §3, §4

Colletotrichum acutatum = assay: 96-well microtiter fungal growth assay;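 also: percent relative to untreated positive growth controls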
Excerpt: as §1, §2, §3, §4

Phomopsis obscurans = assay: 96-well microtiter fungal growth assay
Excerpt: as §1, §2, §3
(§5) Microbioassay Experimental Design. Chemical sensitivity of each fungus 96-well microtiter assay is used to determine sensitivity of B. cinerea, C. acutatum, C. fragariae, C. gloeosporioides, F. oxysporum, Phomopsis viticola, and P. obscurans. Each chemical is evaluated in duplicate at each dose (0.3, 3.0 and 30.0 μM) and repeated twice in time. Sixteen wells containing broth and inoculum serves as positive controls, eight wells containing solvent at the appropriate concentration and broth without inoculum are used as negative controls. […] Treatments are arranged as a split-plot design replicated twice in time. Whole-plots were fungal isolates and sub-plots are chemicals. Each dose level and response time is analyzed separately. The SAS system's analysis of variance procedure (Statistical Analysis System, Cary, N.C.) is used to identify significant factors and Fisher's protected LSD is used to separate means.

Phomopsis viticola = assay: 96-well microtiter fungal growth assay;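 as to Mean percent fungal growth inhibition of Phomopsis viticola: percent relative to untreated positive growth controls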
Excerpt: as §1, §2, §3, §5

O=C(O)c1cn(C2CC2)c2cc(N3CCNCC3)c(F)cc2c1=O [CIP, ciprofloxacin, reference compound]
MIC [1]: 0.63 µg/mL (≈ 1.9 µM)
IC50 ([1]; read-out: IC50 (50% inhibitory concentration)): 0.3 µg/mL (≈ 0.905 µM)
MBC ([1]; read-out: MBC (Minimum Bactericidal Concentration)): 1.25 µg/mL (≈ 3.77 µM)

O=C1C2CC=CCC2C(=O)N1SC(Cl)(Cl)Cl (stereo not drawn) [Captan]
Mean percent fungal growth inhibition of Colletotrichum gloeosporoides ([2]; 0.3 μm, 48 hrs): 31.5 ± 7.3%
Mean percent fungal growth inhibition of Colletotrichum gloeosporoides ([2]; 0.3 μm, 72 hrs): 38.6 ± 4.5%
Mean percent fungal growth inhibition of Colletotrichum gloeosporoides ([2]; 3.0 μm, 48 hrs): −97.3 ± 1.5%
Mean percent fungal growth inhibition of Colletotrichum gloeosporoides ([2]; 3.0 μm, 72 hrs): −95.2 ± 1.9%
Mean percent fungal growth inhibition of Colletotrichum gloeosporoides ([2]; 30 μm, 48 hrs): −98.4 ± 0.5%
Mean percent fungal growth inhibition of Colletotrichum gloeosporoides ([2]; 30 μm, 72 hrs): −98.6 ± 1.7%
Mean percent fungal growth inhibition of Colletotrichum fragariae (Colletotrichum fragariae; 0.3 μm, 48 hrs): 18.1 ± 2.7%
Mean percent fungal growth inhibition of Colletotrichum fragariae (Colletotrichum fragariae; 0.3 μm, 72 hrs): −17.5 ± 15.6%
Mean percent fungal growth inhibition of Colletotrichum fragariae (Colletotrichum fragariae; 3.0 μm, 48 hrs): −96.2 ± 1.0%
Mean percent fungal growth inhibition of Colletotrichum fragariae (Colletotrichum fragariae; 3.0 μm, 72 hrs): −74.0 ± 9.3%
Mean percent fungal growth inhibition of Colletotrichum fragariae (Colletotrichum fragariae; 30 μm, 48 hrs): −99.7 ± 1.0%
Mean percent fungal growth inhibition of Colletotrichum fragariae (Colletotrichum fragariae; 30 μm, 72 hrs): −91.4 ± 5.2%
Mean percent fungal growth inhibition of Fusarium oxysporum (Fusarium oxysporum; 0.3 μm, 48 hrs): 13.6 ± 3.5%
Mean percent fungal growth inhibition of Fusarium oxysporum (Fusarium oxysporum; 0.3 μm, 72 hrs): 12.0 ± 2.2%
Mean percent fungal growth inhibition of Fusarium oxysporum (Fusarium oxysporum; 3.0 μm, 48 hrs): −50.0 ± 2.8%
Mean percent fungal growth inhibition of Fusarium oxysporum (Fusarium oxysporum; 3.0 μm, 72 hrs): −5.4 ± 4.4%
Mean percent fungal growth inhibition of Fusarium oxysporum (Fusarium oxysporum; 30 μm, 48 hrs): −99.4 ± 0.3%
Mean percent fungal growth inhibition of Fusarium oxysporum (Fusarium oxysporum; 30 μm, 72 hrs): −99.5 ± 0.4%
Mean percent fungal growth inhibition of Botrytis cinerea (Botrytis cinerea; 0.3 μm, 48 hrs): 3.1 ± 26.7%
Mean percent fungal growth inhibition of Botrytis cinerea (Botrytis cinerea; 0.3 μm, 72 hrs): 3.4 ± 5.8%
Mean percent fungal growth inhibition of Botrytis cinerea (Botrytis cinerea; 3.0 μm, 48 hrs): −45.9 ± 22.2%
Mean percent fungal growth inhibition of Botrytis cinerea (Botrytis cinerea; 3.0 μm, 72 hrs): −46.1 ± 5.6%
Mean percent fungal growth inhibition of Botrytis cinerea (Botrytis cinerea; 30 μm, 48 hrs): −76.4 ± 13.4%
Mean percent fungal growth inhibition of Botrytis cinerea (Botrytis cinerea; 30 μm, 72 hrs): −98.7 ± 0.9%
Mean percent fungal growth inhibition of Colletotrichum acutatum (Colletotrichum acutatum; 0.3 μm, 48 hrs): 42.5 ± 8.8%
Mean percent fungal growth inhibition of Colletotrichum acutatum (Colletotrichum acutatum; 0.3 μm, 72 hrs): 35.4 ± 6.1%
Mean percent fungal growth inhibition of Colletotrichum acutatum (Colletotrichum acutatum; 3.0 μm, 48 hrs): −98.0 ± 0.9%
Mean percent fungal growth inhibition of Colletotrichum acutatum (Colletotrichum acutatum; 3.0 μm, 72 hrs): −94.1 ± 3.0%
Mean percent fungal growth inhibition of Colletotrichum acutatum (Colletotrichum acutatum; 30 μm, 48 hrs): −98.6 ± 0.5%
Mean percent fungal growth inhibition of Colletotrichum acutatum (Colletotrichum acutatum; 30 μm, 72 hrs): −99.7 ± 0.2%
Percent change in fungal growth vs control (negative = inhibition) (Phomopsis obscurans; 0.3 μm, 120 hrs): −37.3 ± 6.6%
Percent change in fungal growth vs control (negative = inhibition) (Phomopsis obscurans; 0.3 μm, 144 hrs): −30.9 ± 6.3%
Percent change in fungal growth vs control (negative = inhibition) (Phomopsis obscurans; 3.0 μm, 120 hrs): −96.0 ± 1.8%
Percent change in fungal growth vs control (negative = inhibition) (Phomopsis obscurans; 3.0 μm, 144 hrs): −98.3 ± 0.6%
Percent change in fungal growth vs control (negative = inhibition) (Phomopsis obscurans; 30 μm, 120 hrs): −100 ± 0.0%
Percent change in fungal growth vs control (negative = inhibition) (Phomopsis obscurans; 30 μm, 144 hrs): −99.6 ± 0.2%
Mean percent fungal growth inhibition of Phomopsis viticola (Phomopsis viticola; 0.3 μm, 120 hrs): −118.5 ± 198.7%
Mean percent fungal growth inhibition of Phomopsis viticola (Phomopsis viticola; 3.0 μm, 120 hrs): −99.8 ± 38.2%
Mean percent fungal growth inhibition of Phomopsis viticola (Phomopsis viticola; 3.0 μm, 144 hrs): −95.7 ± 26.0%
Mean percent fungal growth inhibition of Phomopsis viticola (Phomopsis viticola; 30 μm, 120 hrs): −100.0 ± 0.0%
Mean percent fungal growth inhibition of Phomopsis viticola (Phomopsis viticola; 30 μm, 144 hrs): −67.8 ± 21.5%
pIC50 (Phomopsis viticola; Diaporthe ampelina, 72 h, read-out: IC50 (growth inhibition)): > 5.51
